Drawing on PubChem BioAssay (NCI), this text covers TGI for eight compounds.

Test in all cases: inhibition of tumour cell growth, NCI panel, 48 h
Assay [1] has as its system A498 renal.
For assay [2], the system named is A549 NSCLC.
The test system of assay [3] is CCRF-CEM leukemia.
Assay [4] concerns COLO 205 colon.
The test system of assay [5] is DU-145 prostate.
Assay [6] concerns HCT-116 colon.
The test system of assay [7] is KM12 colon.
Assay [8] has as its system LOX IMVI melanoma.
Assay [9] relates to MCF7 breast.
In assay [10] the test system is MDA-MB-435.
Assay [11] relates to NCI-H460 lung.
Assay [12] concerns OVCAR-3 ovarian.
Assay [13] deals with SF-268 CNS.
Assay [14] has as its system SF-295 CNS.
The test system of assay [15] is SF-539 CNS.
For assay [16], the system named is SW-620 colon.
The subject of assay [17] is IGROV1 ovarian.
Assay [18] deals with MALME-3M melanoma.
In assay [19] the test system is SR leukemia.

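A five-concentration, 48-hour dose response in 96-well plates underlies each endpoint, interpolated linearly between surrounding concentrations. At the TGI there is no net growth.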

Take `CCCCCCCCCCCC(=O)OCC(O)CO` (stereo not given): the TGI in assay [1], in assay [2], in [3], in [4], in [5] and in [6] was over 100 µM in each case. The TGI was 75.6 µM in assay [7]; over 100 µM in [8]; over 100 µM in assay [9]; over 100 µM in assay [10]; over 100 µM in assay [11]; over 100 µM in assay [12]. The TGI in [13], in assay [14], in [15] and in assay [16] was over 100 µM in each case.
Consider `COC(=O)C1=CCC[C@H]2[C@@]1(COC(C)=O)CC[C@@H](C)[C@]2(C)CC(=O)c1ccoc1`, for which the TGI was over 50 µM in [1]; over 50 µM in assay [2]; 25.3 µM in assay [3]; 27.3 µM in assay [4]; over 50 µM in assay [5]; 30.4 µM in assay [6]. Also, the TGI in [17] was over 50 µM; in assay [7], over 50 µM; in [8], 24.7 µM; in assay [9], over 50 µM; in [10], over 50 µM; in [11] it was over 50 µM. The TGI in [12] is over 50 µM; in [13], over 50 µM; in assay [14], over 50 µM; in assay [15], 24.8 µM; in assay [16], over 50 µM.
On to `CCOC(=O)c1sc2c(c1OC(=O)c1ccco1)c(=O)n(-c1ccccc1)c(=S)n2-c1ccccc1`, for which the TGI was 60.4 µM in assay [1]; over 100 µM in assay [2]; over 100 µM in assay [3]; 38.1 µM in assay [4]; over 100 µM in assay [5]; over 100 µM in assay [6]. Also, the TGI in [17] is 36.3 µM; in assay [7] it was over 100 µM; in assay [8], 61.7 µM; in assay [18] it was 60.6 µM; in [9] it was over 100 µM; in assay [10] it was 93 µM. Moreover, the TGI in [11] is 45.5 µM; in [12] it was 76.9 µM; in assay [13] it was over 100 µM; in assay [14], over 100 µM; in [15], 97.9 µM; in [16], over 100 µM.
Regarding `C#CCNC(CCCN=C(N)N)C(=O)O` (stereo not given), the TGI in [1], in assay [2], in [3], in [4], in [5] and in assay [6] was over 100 µM each time. Moreover, the TGI in assay [17], in [7], in assay [8], in assay [18], in assay [10] and in [11] was over 100 µM throughout. Moreover, the TGI in assay [12], in assay [13], in assay [14], in assay [19] and in [16] was over 100 µM throughout.
`c1ccc(Nc2nnc(-c3ccccc3Nc3ccccc3-c3nnc(Nc4ccccc4)s3)s2)cc1`: the TGI in assay [3], in assay [4], in assay [5], in assay [6], in assay [17] and in assay [7] was over 100 µM each time. Further, the TGI in assay [8], in assay [18], in assay [9], in assay [10], in assay [11] and in assay [12] was over 100 µM each time. In addition, the TGI in [13], in assay [14], in [15] and in [16] was over 100 µM in each case.
On to `COC(=O)c1ccc(C)cc1C1CN=NC12Cc1c(C)cccc1C2=O` (stereo not given), for which the TGI in assay [1] is over 100 µM; in [2], over 100 µM; in [3] it was over 100 µM; in [4], 42.8 µM; in [5], over 100 µM; in [6] it was over 86.9 µM. Further, the TGI in assay [17] is 98 µM; in assay [7], over 84.8 µM; in [8], over 70.7 µM; in [18] it was over 90.3 µM; in assay [10], over 71.2 µM; in assay [11], over 100 µM. The TGI is over 100 µM in assay [12]; over 100 µM in assay [13]; over 100 µM in assay [14]; over 100 µM in assay [15]; over 80.2 µM in [19]; over 100 µM in assay [16].
On to `O=[N+]([O-])/C(C(Cl)=C(Cl)Cl)=C(\NCc1ccccc1)Sc1ccccc1`, for which the TGI in assay [1] was 62.2 µM; in [2], over 100 µM; in assay [3], over 100 µM; in assay [4] it was 33.2 µM; in [5], over 100 µM; in assay [6] it was over 100 µM. For the same compound, the TGI is 36.9 µM in assay [7]; 26.6 µM in assay [8]; 33.3 µM in [18]; over 100 µM in assay [9]; 41.3 µM in assay [10]; over 100 µM in assay [11]. Moreover, the TGI was determined as 34.5 µM in assay [12]; 57.4 µM in assay [13]; 41 µM in [14]; 38.9 µM in assay [15]; 42.6 µM in assay [16].
Turning to `CC(=O)/C=C1/C(=O)C(CC(C)C)=C1CC(C)C`, the TGI in assay [1], in assay [2], in assay [3], in assay [4], in assay [5] and in assay [6] was over 100 µM each time. In addition, the TGI in [17], in assay [7], in assay [8], in assay [18], in assay [9] and in [10] was over 100 µM throughout. Also, the TGI in [13], in assay [14], in assay [15] and in assay [16] was over 100 µM each time.
